Where “and” joins values, the source holds several entries; their conditions need not be identical. Equal entries are not always repeated. Some results are limits rather than exact numbers.

Results on one compound are retold here after EPA's ToxValDB 9.5 (doi:10.2903/j.efsa.2008.185r).

In one data set the test system is Colinus virginianus. Conditions: mortality.
The subject of another data set is Coturnix coturnix. Conditions: acute, oral, mortality.
A further data set concerns Canidae. Conditions: oral, Dog Other, clinical chemistry.
The test system of a further data set is Tagia sp. As to conditions: acute; duration: 14 days; mortality.
The test system of the next data set is Daphnia magna. Conditions: chronic/long-term; duration: 21 days; reproduction.
For another data set, the system named is Anas platyrhynchos. As to conditions: short-term; oral; feed; mortality.
The next data set deals with Apis mellifera. As to conditions: acute; duration: 48 hours; oral; unspecified; mortality.
In another data set the test system is Mus musculus. As to conditions: acute, oral, mortality.
The test system of the next data set is Rattus norvegicus. Conditions: for LD50: acute, oral.
A further data set relates to Typhlodromus pyri. Description: LR50; higher = less toxic. Conditions: not reported; mortality.
Another data set deals with Aphidius rhopalosiphi. Kind of data set: LR50; higher = less toxic. Conditions: not reported; mortality.

As for `Cc1nnc(-c2ccccc2)c(=O)n1N` [Metamitron], the LD50 with Colinus virginianus (acute, oral, diet) is more than 904 mg/kg-day; in the data set on Coturnix coturnix (F), 1300 mg/kg-day; in the data set on Coturnix coturnix (M), 1360 mg/kg-day; with Anas platyrhynchos, more than 1590 mg/kg-day; with Apis mellifera it was more than 97.2 µg/piece; in the data set on Mus musculus (M) it was 691 mg/kg-day. For the same compound, the LD50 in the data set with Mus musculus is 644 mg/kg-day; in the data set on Rattus norvegicus (F, mortality) it was 1480 mg/kg-day; in the data set with Rattus norvegicus (M, mortality) it was 1180 mg/kg-day; in the data set on Rattus norvegicus (mortality), < 2000 mg/kg-day and 4320 mg/kg-day. The NOAEL – broadly, the highest dose or exposure tested at which no adverse effect was seen – in the data set with Colinus virginianus (reproduction developmental) was determined as 81.5 mg/kg-day; in the data set on Canidae (chronic, duration: 2 years, diet), 3 mg/kg-day; with Canidae (subchronic, duration: 90 days), 3.6 mg/kg-day; in the data set on Rattus norvegicus (chronic, F, mortality), 53.8 mg/kg-day; with Rattus norvegicus (chronic, M, mortality), 36.4 mg/kg-day; with Rattus norvegicus (reproduction developmental, body weight), 10 mg/kg-day. The LC50 with Oncorhynchus mykiss (acute, duration: 96 hours, mortality) was more than 190 µg/mL; in the data set on Tagia sp. it was 914 mg/kg. In addition, the NOEC with Oncorhynchus mykiss (chronic/long-term, duration: 21 days, growth) was found to be 7 mg/L; with Daphnia magna it was 10 mg/L. The LR50 in the data set with Typhlodromus pyri and in the data set with Aphidius rhopalosiphi was 14400 g/ha in each case.
